Data: ChEMBL document CHEMBL5696441 (Nat Chem Biol, 2011)

Columns and labels:
[1] = biological target: Casein kinase II subunit alpha' (Homo sapiens) (UniProt P19784); assay: Inhibition of CSNK2A2 (unknown origin) assessed as remaining activity at 1 uM by Kinome scan method relative to control
[2] = test system: Epidermal growth factor receptor (Homo sapiens), P00533 [L861Q]; assay: Inhibition of EGFR L861Q mutant (unknown origin) assessed as remaining activity at 1 uM by Kinome scan method relative to control
[3] = biological target: Serine/threonine-protein kinase OSR1 (Homo sapiens) (UniProt O95747); assay: Inhibition of OSR1 (unknown origin) assessed as remaining activity at 1 uM by Kinome scan method relative to control
Chain of Serine/threonine-protein kinase OSR1 (Homo sapiens) (O95747 2-527 limits assumed): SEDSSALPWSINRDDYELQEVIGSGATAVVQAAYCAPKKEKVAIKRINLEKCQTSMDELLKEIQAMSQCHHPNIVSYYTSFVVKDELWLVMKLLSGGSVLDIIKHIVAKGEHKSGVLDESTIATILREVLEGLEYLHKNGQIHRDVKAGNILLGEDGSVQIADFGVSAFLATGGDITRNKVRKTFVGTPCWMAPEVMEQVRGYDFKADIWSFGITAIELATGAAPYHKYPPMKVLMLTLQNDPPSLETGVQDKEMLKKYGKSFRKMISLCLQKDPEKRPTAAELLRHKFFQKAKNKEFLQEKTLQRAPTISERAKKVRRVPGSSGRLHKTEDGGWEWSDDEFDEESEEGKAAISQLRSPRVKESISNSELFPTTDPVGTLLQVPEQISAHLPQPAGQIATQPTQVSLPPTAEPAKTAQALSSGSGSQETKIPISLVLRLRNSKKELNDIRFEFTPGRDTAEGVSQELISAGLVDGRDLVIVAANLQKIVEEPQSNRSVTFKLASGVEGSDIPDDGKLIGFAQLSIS

[4] = biological target: Serine/threonine-protein kinase SIK3 (Homo sapiens) (UniProt Q9Y2K2); assay: Inhibition of QSK (unknown origin) assessed as remaining activity at 1 uM by Kinome scan method relative to control
Chain of Serine/threonine-protein kinase SIK3 (Homo sapiens) (Q9Y2K2 whole entry, looked up): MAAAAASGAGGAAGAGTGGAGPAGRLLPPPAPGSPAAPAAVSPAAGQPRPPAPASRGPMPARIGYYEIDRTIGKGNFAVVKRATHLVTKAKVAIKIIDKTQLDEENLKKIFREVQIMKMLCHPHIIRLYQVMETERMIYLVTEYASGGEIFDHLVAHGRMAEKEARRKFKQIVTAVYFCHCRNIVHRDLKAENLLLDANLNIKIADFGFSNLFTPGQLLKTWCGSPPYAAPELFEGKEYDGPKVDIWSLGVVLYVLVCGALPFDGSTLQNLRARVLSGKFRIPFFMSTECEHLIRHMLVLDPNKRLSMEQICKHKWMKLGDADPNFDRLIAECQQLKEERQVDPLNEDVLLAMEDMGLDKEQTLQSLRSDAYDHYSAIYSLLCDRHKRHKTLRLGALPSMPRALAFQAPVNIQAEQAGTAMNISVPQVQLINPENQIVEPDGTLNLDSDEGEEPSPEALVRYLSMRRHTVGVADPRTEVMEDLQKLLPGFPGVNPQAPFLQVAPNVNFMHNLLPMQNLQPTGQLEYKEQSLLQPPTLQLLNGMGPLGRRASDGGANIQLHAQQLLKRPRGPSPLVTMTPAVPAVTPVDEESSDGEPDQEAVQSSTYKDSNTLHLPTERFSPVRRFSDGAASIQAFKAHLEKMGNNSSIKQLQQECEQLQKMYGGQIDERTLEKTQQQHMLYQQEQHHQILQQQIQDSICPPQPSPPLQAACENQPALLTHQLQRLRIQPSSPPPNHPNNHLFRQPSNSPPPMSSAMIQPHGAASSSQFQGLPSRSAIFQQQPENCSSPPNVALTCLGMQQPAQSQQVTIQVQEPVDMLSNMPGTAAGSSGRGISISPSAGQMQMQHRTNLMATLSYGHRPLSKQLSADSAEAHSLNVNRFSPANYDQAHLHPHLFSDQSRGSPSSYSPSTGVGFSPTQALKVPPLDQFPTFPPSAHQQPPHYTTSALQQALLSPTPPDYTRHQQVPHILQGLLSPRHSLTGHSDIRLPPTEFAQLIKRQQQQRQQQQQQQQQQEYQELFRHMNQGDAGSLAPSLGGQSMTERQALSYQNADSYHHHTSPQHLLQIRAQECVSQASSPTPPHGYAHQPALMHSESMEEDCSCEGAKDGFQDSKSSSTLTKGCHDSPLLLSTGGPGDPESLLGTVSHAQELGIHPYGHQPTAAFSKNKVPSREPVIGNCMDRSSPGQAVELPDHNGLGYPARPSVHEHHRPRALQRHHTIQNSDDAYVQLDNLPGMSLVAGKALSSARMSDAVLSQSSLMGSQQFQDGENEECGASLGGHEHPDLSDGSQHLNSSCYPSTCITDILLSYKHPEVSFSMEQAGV

[5] = biological target: Activin receptor type-1 (Homo sapiens) (UniProt Q04771); assay: Inhibition of human ACVR1 assessed as residual activity at 1 uM using RBER-GSK3(14-27) as substrate in presence of 33P-ATP by ProQinase assay relative to control
Chain of Activin receptor type-1 (Homo sapiens) (Q04771 whole entry): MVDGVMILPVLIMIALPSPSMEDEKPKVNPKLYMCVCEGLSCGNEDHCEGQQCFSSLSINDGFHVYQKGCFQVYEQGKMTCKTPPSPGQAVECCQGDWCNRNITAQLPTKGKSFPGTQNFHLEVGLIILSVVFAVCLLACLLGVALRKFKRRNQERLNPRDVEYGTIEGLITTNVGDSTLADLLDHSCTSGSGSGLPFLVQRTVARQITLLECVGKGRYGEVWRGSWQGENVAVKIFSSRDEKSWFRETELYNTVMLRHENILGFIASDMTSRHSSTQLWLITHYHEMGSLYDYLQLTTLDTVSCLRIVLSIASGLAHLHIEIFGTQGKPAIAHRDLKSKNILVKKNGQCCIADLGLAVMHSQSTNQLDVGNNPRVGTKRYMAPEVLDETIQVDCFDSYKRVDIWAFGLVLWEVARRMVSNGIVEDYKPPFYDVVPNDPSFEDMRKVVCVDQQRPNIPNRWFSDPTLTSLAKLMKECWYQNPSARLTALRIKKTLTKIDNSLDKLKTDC

[6] = biological target: T1, Homeodomain-interacting protein kinase 4 (Homo sapiens) (UniProt Q8NE63); assay: Inhibition of human HIPK4 assessed as residual activity at 1 uM using RBER-IRStide as substrate in presence of 33P-ATP by ProQinase assay relative to control
T1 sequence (whole entry): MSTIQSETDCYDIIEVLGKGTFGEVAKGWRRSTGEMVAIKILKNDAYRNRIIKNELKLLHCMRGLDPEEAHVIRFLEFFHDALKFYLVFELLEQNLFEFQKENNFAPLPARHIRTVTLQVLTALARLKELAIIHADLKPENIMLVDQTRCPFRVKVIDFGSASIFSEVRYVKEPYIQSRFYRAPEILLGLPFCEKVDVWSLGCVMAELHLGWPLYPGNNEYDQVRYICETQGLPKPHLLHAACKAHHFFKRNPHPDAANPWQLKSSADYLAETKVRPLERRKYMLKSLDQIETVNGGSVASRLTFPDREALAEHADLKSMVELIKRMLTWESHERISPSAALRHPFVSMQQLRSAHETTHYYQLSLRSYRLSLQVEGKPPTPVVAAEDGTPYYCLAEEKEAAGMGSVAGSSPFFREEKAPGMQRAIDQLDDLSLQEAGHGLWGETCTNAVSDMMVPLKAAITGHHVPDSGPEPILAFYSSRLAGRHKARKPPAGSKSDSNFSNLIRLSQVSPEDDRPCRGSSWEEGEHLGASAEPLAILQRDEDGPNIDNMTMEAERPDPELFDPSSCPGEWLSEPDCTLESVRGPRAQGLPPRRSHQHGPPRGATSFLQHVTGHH

[7] = biological target: Maternal embryonic leucine zipper kinase (Homo sapiens) (UniProt Q14680); assay: Inhibition of human MELK assessed as residual activity at 1 uM using RBER-CHKtide as substrate in presence of 33P-ATP by ProQinase assay relative to control
Chain of Maternal embryonic leucine zipper kinase (Homo sapiens) (Q14680 whole entry, looked up): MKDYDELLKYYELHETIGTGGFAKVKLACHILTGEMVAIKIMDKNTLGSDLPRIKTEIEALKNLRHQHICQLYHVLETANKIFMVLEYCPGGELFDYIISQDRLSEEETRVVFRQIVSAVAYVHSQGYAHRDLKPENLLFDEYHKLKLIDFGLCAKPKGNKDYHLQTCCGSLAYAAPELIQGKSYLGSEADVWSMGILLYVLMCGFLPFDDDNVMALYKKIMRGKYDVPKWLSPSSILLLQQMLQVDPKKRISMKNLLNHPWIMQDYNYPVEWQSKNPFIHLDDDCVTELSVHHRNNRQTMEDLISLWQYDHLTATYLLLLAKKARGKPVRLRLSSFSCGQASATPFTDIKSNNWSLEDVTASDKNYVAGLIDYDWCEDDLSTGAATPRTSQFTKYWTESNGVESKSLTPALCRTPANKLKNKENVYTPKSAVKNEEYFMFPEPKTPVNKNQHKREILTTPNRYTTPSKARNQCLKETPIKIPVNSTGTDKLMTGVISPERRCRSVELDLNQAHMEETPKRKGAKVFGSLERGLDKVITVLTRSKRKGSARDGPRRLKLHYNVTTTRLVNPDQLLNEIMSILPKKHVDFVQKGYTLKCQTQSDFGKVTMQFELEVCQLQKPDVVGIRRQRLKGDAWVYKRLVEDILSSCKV

[8] = biological target: Dual specificity protein kinase TTK (Homo sapiens) (UniProt P33981); assay: Inhibition of human TTK assessed as residual activity at 1 uM using RBER-CHKtide as substrate in presence of 33P-ATP by ProQinase assay relative to control
Chain of Dual specificity protein kinase TTK (Homo sapiens) (P33981 whole entry): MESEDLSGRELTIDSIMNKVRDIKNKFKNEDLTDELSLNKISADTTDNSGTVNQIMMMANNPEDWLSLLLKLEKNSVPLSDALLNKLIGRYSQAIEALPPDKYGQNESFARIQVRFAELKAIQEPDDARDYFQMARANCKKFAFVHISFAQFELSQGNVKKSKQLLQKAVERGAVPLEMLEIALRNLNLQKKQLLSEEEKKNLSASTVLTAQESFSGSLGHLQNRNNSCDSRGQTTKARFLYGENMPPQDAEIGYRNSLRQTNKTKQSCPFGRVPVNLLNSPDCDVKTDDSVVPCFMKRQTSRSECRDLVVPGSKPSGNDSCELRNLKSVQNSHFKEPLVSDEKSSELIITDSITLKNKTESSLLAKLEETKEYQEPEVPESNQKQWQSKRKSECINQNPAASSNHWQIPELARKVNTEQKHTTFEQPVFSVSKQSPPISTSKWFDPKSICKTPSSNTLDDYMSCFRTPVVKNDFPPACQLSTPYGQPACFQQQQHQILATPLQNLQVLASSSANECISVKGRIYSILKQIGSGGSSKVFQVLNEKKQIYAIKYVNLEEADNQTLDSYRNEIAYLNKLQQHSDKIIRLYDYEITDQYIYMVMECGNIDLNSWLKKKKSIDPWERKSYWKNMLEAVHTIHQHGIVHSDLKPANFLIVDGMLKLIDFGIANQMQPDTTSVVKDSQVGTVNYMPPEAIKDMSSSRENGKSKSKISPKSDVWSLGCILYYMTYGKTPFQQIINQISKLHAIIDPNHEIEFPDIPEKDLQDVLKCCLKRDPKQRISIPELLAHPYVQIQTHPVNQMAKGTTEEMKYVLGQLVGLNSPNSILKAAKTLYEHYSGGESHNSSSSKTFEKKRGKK

[9] = biological target: T2, Tyrosine-protein kinase TXK (Homo sapiens) (UniProt P42681); assay: Inhibition of human TXK assessed as residual activity at 1 uM using RBER-CHKtide as substrate in presence of 33P-ATP by ProQinase assay relative to control
T2 sequence (whole entry): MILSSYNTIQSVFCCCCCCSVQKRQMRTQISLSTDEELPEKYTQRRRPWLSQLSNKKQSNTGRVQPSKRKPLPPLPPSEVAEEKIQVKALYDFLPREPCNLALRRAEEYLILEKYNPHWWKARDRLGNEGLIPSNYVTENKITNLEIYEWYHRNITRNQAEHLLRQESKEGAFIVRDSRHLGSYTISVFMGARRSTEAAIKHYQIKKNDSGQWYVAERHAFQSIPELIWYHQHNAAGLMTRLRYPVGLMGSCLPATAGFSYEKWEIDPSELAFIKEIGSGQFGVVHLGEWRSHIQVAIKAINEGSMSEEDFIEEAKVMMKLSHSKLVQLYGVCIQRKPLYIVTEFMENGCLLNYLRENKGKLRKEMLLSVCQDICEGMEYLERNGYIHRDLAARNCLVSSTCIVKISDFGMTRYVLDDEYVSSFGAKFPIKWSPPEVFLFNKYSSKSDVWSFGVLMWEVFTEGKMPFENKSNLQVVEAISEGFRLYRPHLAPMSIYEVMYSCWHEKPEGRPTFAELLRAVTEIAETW

Chain of Casein kinase II subunit alpha' (Homo sapiens) (P19784 whole entry, looked up): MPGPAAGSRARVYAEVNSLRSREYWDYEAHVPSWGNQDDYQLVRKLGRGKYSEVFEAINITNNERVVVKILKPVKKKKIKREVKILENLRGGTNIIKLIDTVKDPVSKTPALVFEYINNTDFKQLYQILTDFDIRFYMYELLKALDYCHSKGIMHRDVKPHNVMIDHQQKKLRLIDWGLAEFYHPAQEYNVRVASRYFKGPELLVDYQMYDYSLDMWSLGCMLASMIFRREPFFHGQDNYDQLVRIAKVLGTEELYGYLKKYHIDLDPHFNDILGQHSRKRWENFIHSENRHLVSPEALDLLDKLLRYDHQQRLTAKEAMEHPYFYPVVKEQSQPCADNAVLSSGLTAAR

O=C1c2ccc(Nc3ccc(F)cc3F)cc2CCc2ccc(OC[C@H](O)CO)cc21 [Skepinone-L]
Activity [1]: 100%
Activity [2]: 72%
Activity [3]: 100%
Activity [4]: 100%
Activity [5]: 94%
Activity [6]: 116%
Activity [7]: 81%
Activity [8]: 83%
Activity [9]: 93%
